From ChEMBL document CHEMBL1201862, “PubChem BioAssay data set” (2004)
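These data come from cells grown in 96-well plates and exposed to compound for 48 hours at five concentrations. GI50 marks 50% less growth.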 Activity calls are given as the source filed them. Rule as the data show it: active = GI50 up to about 1.1 µM and inactive = higher.

Columns and labels:
Assay in all cases: growth of human tumour cells (NCI), 48 h
NCI-H226 = tested on: NCI-H226
HOP-62 = tested on: HOP-62
SF-268 = tested on: SF-268
UACC-62 = tested on: UACC-62
M14 = tested on: M14
OVCAR-4 = tested on: OVCAR-4
MOLT-4 = tested on: MOLT-4
UO-31 = tested on: UO-31
SNB-78 = tested on: SNB-78
IGROV-1 = tested on: IGROV-1
SK-OV-3 = tested on: SK-OV-3
SNB-19 = tested on: SNB-19
NCI-H460 = tested on: NCI-H460
DMS-114 = tested on: DMS-114
SF-295 = tested on: SF-295
RXF 393 = tested on: RXF 393
LOX IMVI = tested on: LOX IMVI
DLD-1 = tested on: DLD-1
OVCAR-5 = tested on: OVCAR-5
SN12C = tested on: SN12C
COLO 205 = tested on: COLO 205
DMS-273 = tested on: DMS-273
KM12 = tested on: KM12
SF-539 = tested on: SF-539
NCI-H522 = tested on: NCI-H522
RPMI-8226 = tested on: RPMI-8226
UACC-257 = tested on: UACC-257
HL-60 = tested on: HL-60
HOP-18 = tested on: HOP-18
M19-MEL = tested on: M19-MEL
Malme-3M = tested on: Malme-3M
SW-620 = tested on: SW-620
LXFL 529 = tested on: LXFL 529
TK-10 = tested on: TK-10
A549 = tested on: A549
CCRF-CEM = tested on: CCRF-CEM
SNB-75 = tested on: SNB-75
A498 = tested on: A498
HCT-116 = tested on: HCT-116
SK-MEL-5 = tested on: SK-MEL-5
HT-29 = tested on: HT-29
OVCAR-3 = tested on: OVCAR-3
SR = tested on: SR
OVCAR-8 = tested on: OVCAR-8
U-251 = tested on: U-251
XF498 = tested on: XF498
K562 = tested on: K562
ACHN = tested on: ACHN
HOP-92 = tested on: HOP-92
HCC 2998 = tested on: HCC 2998
SK-MEL-28 = tested on: SK-MEL-28
KM-20L2 = tested on: KM-20L2
CAKI-1 = tested on: CAKI-1
HCT-15 = tested on: HCT-15
EKVX = tested on: EKVX
NCI-H23 = tested on: NCI-H23
SK-MEL-2 = tested on: SK-MEL-2
786-0 = tested on: 786-0

**Q.** What does the source list for `Cc1ccc(NC(=O)CC2Sc3ccccc3NC2=O)cc1C` (stereo unspecified)?
**A.** GI50 (NCI-H226): 57.9 µM (inactive); GI50 (HOP-62): > 100 µM (inactive); GI50 (SF-268): 60 µM (inactive); GI50 (UACC-62): 75.3 µM (inactive); GI50 (M14): > 100 µM (inactive); GI50 (OVCAR-4): 56.2 µM (inactive); GI50 (MOLT-4): 8.22 µM (inactive); GI50 (UO-31): 73.6 µM (inactive); GI50 (SNB-78): > 100 µM (inactive); GI50 (IGROV-1): > 100 µM (inactive); GI50 (SK-OV-3): > 100 µM (inactive); GI50 (SNB-19): > 100 µM (inactive); GI50 (NCI-H460): 58.6 µM (inactive); GI50 (DMS-114): 41.9 µM (inactive); GI50 (SF-295): > 100 µM (inactive); GI50 (RXF 393): 29.9 µM (inactive); GI50 (LOX IMVI): 38.6 µM (inactive); GI50 (DLD-1): > 100 µM (inactive); GI50 (OVCAR-5): > 100 µM (inactive); GI50 (SN12C): > 100 µM (inactive); GI50 (COLO 205): 65.2 µM (inactive); GI50 (DMS-273): 85.7 µM (inactive); GI50 (KM12): 90.4 µM (inactive); GI50 (SF-539): 85.3 µM (inactive); GI50 (NCI-H522): > 100 µM (inactive); GI50 (RPMI-8226): > 100 µM (inactive); GI50 (UACC-257): > 100 µM (inactive); GI50 (HL-60): 24.5 µM (inactive); GI50 (HOP-18): > 100 µM (inactive); GI50 (M19-MEL): > 100 µM (inactive); GI50 (Malme-3M): > 100 µM (inactive); GI50 (SW-620): > 100 µM (inactive); GI50 (LXFL 529): 49 µM (inactive); GI50 (TK-10): > 100 µM (inactive); GI50 (A549): 41.2 µM (inactive); GI50 (CCRF-CEM): 18.7 µM (inactive); GI50 (SNB-75): 39.8 µM (inactive); GI50 (A498): 37.9 µM (inactive); GI50 (HCT-116): 41.6 µM (inactive); GI50 (SK-MEL-5): 41.4 µM (inactive); GI50 (HT-29): 67.1 µM (inactive); GI50 (OVCAR-3): 70.8 µM (inactive); GI50 (SR): > 100 µM (inactive); GI50 (OVCAR-8): 46.8 µM (inactive); GI50 (U-251): 79.6 µM (inactive); GI50 (XF498): > 100 µM (inactive); GI50 (K562): 28.2 µM (inactive); GI50 (ACHN): 54.8 µM (inactive); GI50 (HOP-92): 26 µM (inactive); GI50 (HCC 2998): > 100 µM (inactive); GI50 (SK-MEL-28): > 100 µM (inactive); GI50 (KM-20L2): > 100 µM (inactive); GI50 (CAKI-1): 85.9 µM (inactive); GI50 (HCT-15): 85.7 µM; GI50 (EKVX): > 100 µM (inactive); GI50 (NCI-H23): > 100 µM (inactive); GI50 (SK-MEL-2): > 100 µM (inactive)

**Q.** How did the GI50 (NCI-H226) turn out when `C/C(CCn1[nH]c(=O)ccc1=O)=N\OCCCc1ccccc1` was run?
**A.** The GI50 was > 100 µM (inactive).

**Q.** What about the GI50 (HOP-62) of the same compound?
**A.** Its GI50 is > 100 µM (inactive).

**Q.** And the GI50 (SF-268)?
**A.** Its GI50 is > 100 µM (inactive).

**Q.** What about the GI50 (UACC-62) of the same compound?
**A.** The GI50 was > 100 µM (inactive).

**Q.** What about the GI50 (M14) of the same compound?
**A.** The GI50 was > 100 µM (inactive).

**Q.** What about the GI50 (OVCAR-4) of the same compound?
**A.** Its GI50 is > 100 µM (inactive).

**Q.** And the GI50 (MOLT-4)?
**A.** Its GI50 is > 100 µM (inactive).

**Q.** And the GI50 (UO-31)?
**A.** Its GI50 is > 100 µM (inactive).

**Q.** What about the GI50 (SNB-78) of the same compound?
**A.** Its GI50 is > 100 µM (inactive).

**Q.** And the GI50 (IGROV-1)?
**A.** Its GI50 is > 100 µM (inactive).

**Q.** What about the GI50 (SNB-19) of the same compound?
**A.** Its GI50 is > 100 µM (inactive).

**Q.** What about the GI50 (NCI-H460) of the same compound?
**A.** The GI50 was > 100 µM (inactive).

**Q.** And the GI50 (DMS-114)?
**A.** The GI50 was > 100 µM (inactive).

**Q.** What about the GI50 (SF-295) of the same compound?
**A.** Its GI50 is > 100 µM (inactive).

**Q.** What about the GI50 (RXF 393) of the same compound?
**A.** The GI50 was > 100 µM (inactive).

**Q.** What about the GI50 (LOX IMVI) of the same compound?
**A.** The GI50 was > 100 µM (inactive).

**Q.** What about the GI50 (DLD-1) of the same compound?
**A.** The GI50 was > 100 µM (inactive).

**Q.** And the GI50 (OVCAR-5)?
**A.** The GI50 was > 100 µM (inactive).

**Q.** And the GI50 (SN12C)?
**A.** The GI50 was > 100 µM (inactive).

**Q.** What about the GI50 (DMS-273) of the same compound?
**A.** Its GI50 is > 100 µM (inactive).

**Q.** And the GI50 (KM12)?
**A.** Its GI50 is > 100 µM (inactive).

**Q.** What about the GI50 (SF-539) of the same compound?
**A.** Its GI50 is > 100 µM (inactive).

**Q.** What about the GI50 (RPMI-8226) of the same compound?
**A.** Its GI50 is > 100 µM (inactive).

**Q.** And the GI50 (UACC-257)?
**A.** The GI50 was > 100 µM (inactive).

**Q.** And the GI50 (HL-60)?
**A.** The GI50 was > 100 µM (inactive).

**Q.** And the GI50 (HOP-18)?
**A.** Its GI50 is > 100 µM (inactive).

**Q.** And the GI50 (M19-MEL)?
**A.** Its GI50 is > 100 µM (inactive).

**Q.** And the GI50 (Malme-3M)?
**A.** Its GI50 is > 100 µM (inactive).

**Q.** And the GI50 (SW-620)?
**A.** The GI50 was > 100 µM (inactive).

**Q.** What about the GI50 (LXFL 529) of the same compound?
**A.** The GI50 was > 100 µM (inactive).

**Q.** What about the GI50 (TK-10) of the same compound?
**A.** The GI50 was > 100 µM (inactive).

**Q.** What about the GI50 (786-0) of the same compound?
**A.** The GI50 was > 100 µM (inactive).

**Q.** What about the GI50 (A549) of the same compound?
**A.** Its GI50 is > 100 µM (inactive).

**Q.** And the GI50 (CCRF-CEM)?
**A.** Its GI50 is > 100 µM (inactive).

**Q.** And the GI50 (SNB-75)?
**A.** The GI50 was > 100 µM (inactive).

**Q.** What about the GI50 (A498) of the same compound?
**A.** The GI50 was > 100 µM (inactive).

**Q.** What about the GI50 (HCT-116) of the same compound?
**A.** Its GI50 is > 100 µM (inactive).

**Q.** And the GI50 (SK-MEL-5)?
**A.** The GI50 was > 100 µM (inactive).

**Q.** And the GI50 (HT-29)?
**A.** Its GI50 is > 100 µM (inactive).

**Q.** And the GI50 (OVCAR-3)?
**A.** Its GI50 is > 100 µM (inactive).

**Q.** And the GI50 (SR)?
**A.** Its GI50 is > 100 µM (inactive).

**Q.** And the GI50 (OVCAR-8)?
**A.** The GI50 was > 100 µM (inactive).

**Q.** What about the GI50 (XF498) of the same compound?
**A.** The GI50 was > 100 µM (inactive).

**Q.** What about the GI50 (K562) of the same compound?
**A.** Its GI50 is > 100 µM (inactive).

**Q.** What about the GI50 (ACHN) of the same compound?
**A.** The GI50 was > 100 µM (inactive).

**Q.** What about the GI50 (HOP-92) of the same compound?
**A.** The GI50 was 88.5 µM (inactive).

**Q.** And the GI50 (HCC 2998)?
**A.** Its GI50 is > 100 µM (inactive).

**Q.** And the GI50 (SK-MEL-28)?
**A.** Its GI50 is > 100 µM (inactive).

**Q.** What about the GI50 (KM-20L2) of the same compound?
**A.** Its GI50 is > 100 µM (inactive).

**Q.** What about the GI50 (CAKI-1) of the same compound?
**A.** Its GI50 is > 100 µM (inactive).

**Q.** What about the GI50 (HCT-15) of the same compound?
**A.** The GI50 was over 100 µM.

**Q.** What about the GI50 (EKVX) of the same compound?
**A.** The GI50 was > 100 µM (inactive).

**Q.** And the GI50 (NCI-H23)?
**A.** The GI50 was > 100 µM (inactive).

**Q.** And the GI50 (SK-MEL-2)?
**A.** The GI50 was > 100 µM (inactive).
